Measured values: patent US20200369728A1, “PEPTIDOMIMETIC MACROCYCLES AND USES THEREOF” (Aileron Therapeutics, Inc., priority 2015, published 2020)
Bridge positions count the residues as written; N and C are the ends. Square brackets hold non-standard residues; d marks the D form. Peptide text beside a SMILES is read from it. Phe(4-COOH) = N[C@@H](Cc1ccc(C(=O)O)cc1)C(=O)O; R8 = C=CCCCCCC[C@@](C)(N)C(=O)O; Cba = N[C@@H](CC1CCC1)C(=O)O; S5 = C=CCCC[C@](C)(N)C(=O)O; Aib = CC(C)(N)C(=O)O

Assays:
SJSA-1 cells = experiment: Cell lysis by peptidomimetic macrocycles (LDH release); type: cell-based; conditions: SJSA-1, 1 h
Procedure, shortened: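 Membrane lysis measured as supernatant LDH after a 1 h, 37 °C exposure of SJSA-1 cells, held in RPMI with 1% FBS, to macrocycles at final 6.25-50 μM with 0.5% DMSO. Lytic references were 10 μM melittin and 1% Triton X-100; DMSO alone served as non-lytic control.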

Caspase 3 = Caspase 3 detection assay in SJSA1 cells; type: cell-based; conditions: SJSA1, 48 h, Caspase 3 activation over DMSO-treated cells
RKO = experiment: Cell viability assay (MTT), RKO; conditions: read-out: RKO EC50 (72 h)

Structure (SMILES)	6.25 μM % Lysed cells (1 h LDH) (SJSA-1 cells) [%]	25 μM % Lysed cells (1 h LDH) (SJSA-1 cells) [%]	caspase 0.3 μM (Caspase 3)	caspase 3 μM (Caspase 3)	caspase 10 μM (Caspase 3)	caspase 30 μM (Caspase 3)	EC50 (RKO) [µM]	50 μM % Lysed cells (1 h LDH) (SJSA-1 cells) [%]	caspase 1 μM (Caspase 3)
CC(=O)N[C@@H](CC(C)C)C(=O)N[C@H](C(=O)N[C@@H](Cc1ccc(F)c(F)c1)C(=O)N[C@]1(C)CCCCCCC=CCCC[C@@](C)(C(=O)N[C@@H](CO)C(=O)N[C@@H](C)C(=O)N[C@@H](C)C(N)=O)NC(=O)[C@H](CC(C)C)NC(=O)[C@H](CCC(N)=O)NC(=O)[C@H](C)NC(=O)[C@H](Cc2c[nH]c3ccccc23)NC(=O)[C@H](Cc2ccc(O)cc2)NC(=O)[C@H](CCC(=O)O)NC1=O)[C@@H](C)O (single isomer, unassigned) [compound 158]	0	−2	1	1.67	5	16.33	> 30	–	–
CC(=O)N[C@@H](CC(C)C)C(=O)N[C@H](C(=O)N[C@@H](Cc1ccccc1)C(=O)N[C@]1(C)CCCCCCC=CCCC[C@@](C)(C(=O)N[C@@H](CO)C(=O)N[C@@H](C)C(=O)N[C@@H](CO)C(N)=O)NC(=O)[C@H](CC(C)C)NC(=O)[C@H](CCC(N)=O)NC(=O)[C@H](C)NC(=O)[C@H](Cc2c[nH]c3ccccc23)NC(=O)[C@H](Cc2ccc(O)cc2)NC(=O)[C@H](C)NC1=O)[C@@H](C)O [compound 122] (Ac-LTF[R8]AYWAQL[S5]SAS-NH2; staple 4-11)	1	0	1	2	15	30	5 to 15	6	–
CC[C@H](C)[C@H](NC(=O)[C@H](C)NC(=O)[C@H](C)NC(=O)[C@]1(C)CCC/C=C/CCCCCC[C@@](C)(NC(=O)[C@H](Cc2ccccc2)NC(=O)[C@@H](NC(=O)[C@H](CC(C)C)NC(C)=O)[C@@H](C)O)C(=O)N[C@@H](CCC(=O)O)C(=O)N[C@@H](Cc2ccc(C(=O)O)cc2)C(=O)N[C@@H](Cc2c[nH]c3ccccc23)C(=O)N[C@@H](C)C(=O)N[C@@H](CCC(N)=O)C(=O)N[C@@H](CC2CCC2)C(=O)N1)C(=O)N[C@H](C)C(N)=O [compound 249] (Ac-LTF[R8]E[Phe(4-COOH)]WAQ[Cba][S5]AAI[dA]-NH2; staple (E) 4-11)	0	0	2	5	11	23	< 5	0	–
CC(=O)N[C@@H](C)C(=O)N[C@@H](C)C(=O)N[C@@H](CC(C)C)C(=O)N[C@H](C(=O)N[C@@H](Cc1ccccc1)C(=O)N[C@]1(C)CCCCCCC=CCCC[C@@](C)(C(=O)N[C@@H](CO)C(=O)N[C@@H](C)C(=O)N[C@@H](C)C(=O)N[C@@H](C)C(=O)N[C@H](C)C(N)=O)NC(=O)[C@H](CC2CCC2)NC(=O)[C@H](CCC(N)=O)NC(=O)[C@H](C)NC(=O)[C@H](Cc2c[nH]c3ccccc23)NC(=O)[C@H](Cc2ccc(O)cc2)NC(=O)[C@H](CCC(=O)O)NC1=O)[C@@H](C)O (single isomer, unassigned) [compound 359]	0	0	3	11	13	23	15 to 30	0	9
CC(=O)N[C@@H](CC(C)C)C(=O)N[C@H](C(=O)N[C@@H](Cc1ccccc1)C(=O)N[C@]1(C)CCCCCCC=CCCC[C@@](C)(C(=O)N[C@@H](C)C(=O)N[C@@H](Cc2c[nH]cn2)C(=O)N[C@@H](Cc2ccccc2)C(=O)N[C@@H](C)C(N)=O)NC(=O)[C@H](CC(C)C)NC(=O)[C@H](CCC(N)=O)NC(=O)[C@H](C)NC(=O)[C@H](Cc2c[nH]c3ccccc23)NC(=O)[C@H](Cc2ccc(O)cc2)NC(=O)[C@H](C)NC1=O)[C@@H](C)O [compound 50] (Ac-LTF[R8]AYWAQL[S5]AHFA-NH2; staple 4-11)	–	–	–	8	29	29	< 5	–	–
CC(=O)N[C@@H](CC(C)C)C(=O)N[C@H](C(=O)N[C@@H](Cc1ccccc1)C(=O)N[C@]1(C)CCCCCCC=CCCC[C@@](C)(C(=O)N[C@@H](CO)C(=O)N[C@@H](C)C(=O)N[C@@H](C)C(N)=O)NC(=O)[C@H](C2CCCC2)NC(=O)[C@H](CCC(N)=O)NC(=O)[C@H](C)NC(=O)[C@H](Cc2c[nH]c3ccccc23)NC(=O)[C@H](Cc2ccc(O)cc2)NC(=O)[C@H](CCC(=O)O)NC1=O)[C@@H](C)O (single isomer, unassigned) [compound 150]	−1	0	–	–	–	–	15 to 30	2	–
CC(=O)N[C@@H](CC(C)C)C(=O)N[C@H](C(=O)N[C@@H](Cc1ccccc1)C(=O)N[C@]1(C)CCCCCCC=CCCC[C@@](C)(C(=O)N[C@@H](C)C(=O)N[C@H](C(=O)NCC(N)=O)C(C)C)NC(=O)[C@H](CC(C)C)NC(=O)[C@H](CCC(N)=O)NC(=O)[C@H](C)NC(=O)[C@H](Cc2c[nH]c3ccccc23)NC(=O)[C@H](Cc2ccc(O)cc2)NC(=O)[C@H](C)NC1=O)[C@@H](C)O (single isomer, unassigned) [compound 109]	–	–	–	4	16	25	< 5	–	–
CSCC[C@H](NC(=O)[C@H](C)NC(=O)[C@H](CO)NC(=O)[C@]1(C)CCCC=CCCCCCC[C@@](C)(NC(=O)[C@H](Cc2ccccc2)NC(=O)[C@@H](NC(=O)[C@H](CC(C)C)NC(C)=O)[C@@H](C)O)C(=O)N[C@@H](C)C(=O)N[C@@H](Cc2ccc(O)cc2)C(=O)N[C@@H](Cc2c[nH]c3ccccc23)C(=O)N[C@@H](C)C(=O)N[C@@H](CCC(N)=O)C(=O)N[C@@H](CC(C)C)C(=O)N1)C(N)=O [compound 5] (Ac-LTF[R8]AYWAQL[S5]SAM-NH2; staple 4-11)	–	–	–	–	–	–	< 5	–	–
CC(=O)N[C@@H](CC(C)C)C(=O)N[C@H](C(=O)N[C@@H](Cc1ccccc1)C(=O)N[C@]1(C)CCCCCCC=CCCC[C@@](C)(C(=O)N[C@@H](CO)C(=O)N[C@@H](C)C(=O)NC(C)(C)C(N)=O)NC(=O)[C@H](CC(C)C)NC(=O)[C@H](CCC(N)=O)NC(=O)[C@H](C)NC(=O)[C@H](Cc2c[nH]c3ccccc23)NC(=O)[C@H](Cc2ccc(O)cc2)NC(=O)[C@H](C)NC1=O)[C@@H](C)O [compound 10] (Ac-LTF[R8]AYWAQL[S5]SA[Aib]-NH2; staple 4-11)	–	–	1	1	17	32	5 to 15	–	–
CC(=O)N[C@@H](C)C(=O)N[C@@H](C)C(=O)N[C@@H](CC(C)C)C(=O)N[C@H](C(=O)N[C@@H](Cc1ccccc1)C(=O)N[C@]1(C)CCCCCCC=CCCC[C@@](C)(C(=O)N[C@@H](CO)C(=O)N[C@@H](C)C(=O)N[C@@H](C)C(=O)N[C@@H](C)C(=O)N[C@H](C)C(N)=O)NC(=O)[C@H](CC2CCC2)NC(=O)[C@H](CCC(N)=O)NC(=O)[C@H](C)NC(=O)[C@H](Cc2c[nH]c3ccccc23)NC(=O)[C@H](Cc2ccc(O)cc2)NC(=O)[C@H](CCC(=O)O)NC1=O)[C@@H](C)O (single isomer, unassigned) [compound 358]	–	–	1	3	6	24	15 to 30	–	2
